The text below walks through data of doi:10.1101/2022.05.12.491652v1 (biorxiv, 2022).

What is called pKi is the Ki on a negative log10 scale, so that one unit is a factor of ten. A high value points to a low Ki. Usually CC50 stands for the concentration at which the toxic effect on the cells reaches its halfway point. High values mean better tolerance by the cells, low ones harm at low concentration.

For one data set, the target named is T1, PfClpQ (Plasmodium falciparum, UniProt Q8I5B6).
T1 sequence (Q8I5B6 38-207): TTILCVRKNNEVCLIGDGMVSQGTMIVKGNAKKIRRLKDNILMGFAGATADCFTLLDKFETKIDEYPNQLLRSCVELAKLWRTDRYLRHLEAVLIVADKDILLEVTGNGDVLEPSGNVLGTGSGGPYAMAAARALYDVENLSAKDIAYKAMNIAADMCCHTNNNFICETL
In words: fluorogenic peptide. The format is biochemical.

A further data set can be described thus: in vitro. The note with it: human, hela cells.

pKi: −log10 of the molar value.

Regarding `CCn1nc(-c2ccc(C(=O)OC)cc2)nc2c(=O)n(C)c(=O)nc1-2` [CN172, methyl 4-{1-ethyl-6-methyl-5,7-dioxopyrimido[5,4-e][1,2,4]triazin-3-yl}benzoate], the pKi on PfClpQ was 6.36. In the data set “in vitro”, this compound displayed a 50% cytotoxic concentration (CC50) of 9.58 µM.

For `Cn1nc(-c2ccncc2)nc2c(=O)n(C)c(=O)nc1-2` [ICGEB-L1, 1,6-dimethyl-3-(pyridin-4-yl)-1H,5H,6H,7H-pyrimido[5,4-e][1,2,4]triazine-5,7-dione], in the data set “in vitro”, the midpoint of cytotoxicity, the CC50, lay at 8.4 µM.

For the compound `CCn1nc(/C=C/c2ccccc2)[n+]([O-])c2c(=O)n(C)c(=O)nc1-2` [ICGEB-L3, 1-ethyl-6-methyl-5,7-dioxo-3-[(1E)-2-phenylethenyl]-1H,5H,6H,7H-pyrimido[5,4-e][1,2,4]triazin-4-ium-4-olate], the half-maximal cytotoxic concentration (CC50) in “in vitro” is 10 µM.

Take `CCn1nc(-c2ccc(Cl)cc2)nc2c(=O)n(C)c(=O)nc1-2` [ICGEB-L2, 3-(4-chlorophenyl)-1-ethyl-6-methyl-1H,5H,6H,7H-pyrimido [5,4-e] [1,2,4] triazine-5,7-dione]: in the data set “in vitro”, the CC50 was 9.93 µM.
